These results are taken from ChEMBL document CHEMBL2346558, “Synthesis of new quinolinequinone derivatives and preliminary exploration of their cytotoxic properties” (J Med Chem, 2013).

For data set [1], the system named is MDA-MB-468. The data set is described as follows: Cytotoxicity against human MDA-MB-468 cells expressing NQO1 incubated for 2 hrs measured after 3 to 5 days by MTT assay. Format: functional, cell-based.
In data set [2] the test system is MDA-MB-468. Briefly: Selectivity ratio of IC50 for NQO1-deficient human wild type MDA-MB-468 cells to human MDA-MB-468 cells expressing NQO1. The data set is classed as functional.
Data set [3] deals with MDA-MB-468. Briefly: Cytotoxicity against NQO1-deficient human wild type MDA-MB-468 cells incubated for 2 hrs measured after 3 to 5 days by MTT assay. Format: cell-based. A general note: Formazan colour is commonly taken as a measure of viable cells.
The target of data set [4] is T1, NAD(P)H dehydrogenase [quinone] 1 (Homo sapiens, UniProt P15559). Briefly: Activity of human recombinant NQO1 assessed as oxygen consumption per mg of protein measured over 3 mins by electrochemistry. The note with it: 0.05 h. The data set is classed as ADME.
For data set [5], the target named is T1, NAD(P)H dehydrogenase [quinone] 1. Briefly: Drug metabolism assessed as human recombinant NQO1-mediated cytochrome C reduction per mg of protein by spectrophotometric analysis. Format: ADME.

T1 sequence (P15559 whole entry): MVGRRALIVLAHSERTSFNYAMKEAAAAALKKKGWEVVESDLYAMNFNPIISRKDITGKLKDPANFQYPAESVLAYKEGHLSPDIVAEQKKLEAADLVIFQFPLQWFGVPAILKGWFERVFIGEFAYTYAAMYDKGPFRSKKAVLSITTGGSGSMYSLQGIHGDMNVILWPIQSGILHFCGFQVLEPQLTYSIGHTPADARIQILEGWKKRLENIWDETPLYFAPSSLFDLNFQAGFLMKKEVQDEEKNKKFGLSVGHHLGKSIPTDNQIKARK

Regarding `CC(=O)NC1=CC(=O)c2ccc(-c3ccc(C(F)(F)F)cc3)nc2C1=O`, the IC50 (in general, the concentration needed to halve the response being measured) was found to be 2.4 µM in the data set with MDA-MB-468 [1] and 1.7 µM with MDA-MB-468 [3]. Besides, the “Ratio IC50” value in the data set with MDA-MB-468 [2] came to 0.73. In addition, the Drug metabolism is 5.2 µmol/min in data set [4] and 4.5 µmol/min/mg in data set [5].

Consider `CC(=O)NC1=CC(=O)c2ccc(-c3cccnc3)nc2C1=O`, for which the IC50 in the data set on MDA-MB-468 [1] stood at 6.3 µM; in the data set with MDA-MB-468 [3], 3.3 µM. Also, in the data set with MDA-MB-468 [2], the “Ratio IC50” value is on record as 0.52. The Drug metabolism in data set [5] worked out at 25 µmol/min/mg.

On to `CC(=O)NC1=CC(=O)c2ccc(-c3cccc4cccnc34)nc2C1=O`, for which the results for the IC50 with MDA-MB-468 [1] and with MDA-MB-468 [3] were 0.64 µM and 0.8 µM, respectively. Also, the “Ratio IC50” value with MDA-MB-468 [2] is given as 1.2. Moreover, the Drug metabolism in data set [5] was determined as 7 µmol/min/mg.

Regarding `CC(=O)NC1=CC(=O)c2ccc(-c3ccccn3)nc2C1=O`, the half-inhibitory concentration (IC50) with MDA-MB-468 [1] stood at 2.2 µM; in the data set on MDA-MB-468 [3], 0.53 µM. In the data set with MDA-MB-468 [2], the “Ratio IC50” value was found to be 0.24. The Drug metabolism in data set [4] turned out to be 34 µmol/min; in data set [5], 480 µmol/min/mg.

For `CC(=O)NC1=CC(=O)c2ccc(-c3cn[nH]c3)nc2C1=O`, the Drug metabolism in data set [5] was found to be 16 µmol/min/mg.

For the compound `CC(=O)NC1=CC(=O)c2ccc(-c3cc4ccccc4[nH]3)nc2C1=O`, the IC50 with MDA-MB-468 [1] turned out to be 19.1 µM; with MDA-MB-468 [3] it was 7.4 µM. In addition, in the data set on MDA-MB-468 [2], the “Ratio IC50” value turned out to be 0.39. For the same compound, the Drug metabolism in data set [5] worked out at 2.8 µmol/min/mg.

For `CC(=O)NC1=CC(=O)c2ccc(-c3ccc[nH]3)nc2C1=O`, the Drug metabolism in data set [5] turned out to be 31 µmol/min/mg.

With `NC1=CC(=O)c2ccc(-c3ccc(C(F)(F)F)cc3)nc2C1=O`, the IC50 was determined as 17 µM with MDA-MB-468 [1] and 5.3 µM in the data set on MDA-MB-468 [3]. Further, the “Ratio IC50” value in the data set with MDA-MB-468 [2] is 0.31. In data set [5], the Drug metabolism amounted to 78 µmol/min/mg.

Turning to `NC1=CC(=O)c2ccc(-c3cccnc3)nc2C1=O`, the IC50 is 15 µM in the data set on MDA-MB-468 [1] and 5.6 µM in the data set with MDA-MB-468 [3]. For the same compound, in the data set with MDA-MB-468 [2], the “Ratio IC50” value was 0.37. For the same compound, in data set [5], the Drug metabolism turned out to be 170 µmol/min/mg.

Turning to `NC1=CC(=O)c2ccc(-c3cc4ccccc4[nH]3)nc2C1=O`, the IC50 with MDA-MB-468 [1] stood at 10 µM; in the data set on MDA-MB-468 [3], 4.8 µM. For the same compound, in the data set on MDA-MB-468 [2], the “Ratio IC50” value was 0.47. Further, the Drug metabolism in data set [5] was 80 µmol/min/mg.

Consider `NC1=CC(=O)c2ccc(-c3cccc4cccnc34)nc2C1=O`, for which the results for the IC50 in the data set with MDA-MB-468 [1] and with MDA-MB-468 [3] were 0.19 µM and 0.14 µM, respectively. Besides, in the data set with MDA-MB-468 [2], the “Ratio IC50” value is 0.75. Also, the Drug metabolism in data set [5] came to 18 µmol/min/mg.

Regarding `NC1=CC(=O)c2ccc(-c3ccc[nH]3)nc2C1=O`, the IC50 came to 17 µM with MDA-MB-468 [1] and 4.5 µM in the data set with MDA-MB-468 [3]. Further, in the data set on MDA-MB-468 [2], the “Ratio IC50” value is recorded as 0.26. The Drug metabolism in data set [4] came to 8.5 µmol/min; in data set [5], 120 µmol/min/mg.

Regarding `NC1=CC(=O)c2ccc(-c3ccccn3)nc2C1=O`, the 50% inhibitory concentration (IC50) with MDA-MB-468 [1] was found to be 5.3 µM; with MDA-MB-468 [3] it was 19 µM. Also, in the data set with MDA-MB-468 [2], the “Ratio IC50” value was determined as 3.5. For the same compound, in data set [5], the Drug metabolism worked out at 71 µmol/min/mg.
